In patent publication US20220388962A1 (Biohaven Therapeutics Ltd., priority 2019, published 2022):
Where a name gives a salt, the structure may show the parent alone.

molecular target: TDP-43 (Homo sapiens, UniProt Q13148); test: TDP-43-DNA alpha-screen assay (bt-TAR-32 displacement); format: binding; conditions: bt-TAR-32 0.125 nM, 15 ng/ml TDP-43
Procedure: Alpha-screen assay: Displacement of bt-TG6 binding was measured using AlphaScreen technology as previously described (Cassel, J. A. et al., Journal of Biomolecular Screening, 2010, 15, 1099-1106; Cassel, J. A.; Reitz, A. B. et al. The effects of small molecule inhibitors of nucleic acid binding to TDP-43 on TDP-43 metabolism and function. Biochimie, 2012, 94, 1974-1981).
Test compounds were diluted in assay buffer (25 mM Tris [pH 7.4], 0.1% bovine serum albumin [BSA], 0.1% Triton X-100) at 4× the desired final concentration. Dilutions of test compound (50 to 0.02 μM in half-log dilutions with a no compound control well) were pre-incubated with TDP-43 (5 μl of 60 ng/mL) pre-bound to AlphaScreen® anti-GST acceptor beads (5 μl of 40 μg/mL) in 15 μl volume for 30 minutes at 23° C. with shaking. Assays were initiated by the addition of 5 μl bt-TAR-32 (5′-CTGCTTTTTGCCTGTACTGGGTCTCTGTGGTT-3′) 0.5 nM pre-bound to AlphaScreen® strepavidin donor beads (40 μg/mL). After incubation in the dark at 23° C. for 90 minutes with shaking, the AlphaScreen® signal was measured on a Synergy 2 plate reader (BioTek, Winooski, Vt.). IC50 values were determined from nonlinear regression fits of the data to a Sigmoidal dose response variable slope model in GraphPad Prism. Final assay conditions are 25 mM Tris [pH 7.4], 0.1% bovine serum albumin [BSA], 0.100 Triton X-100, 15 ng/ml TDP-43, 0.125 nM bTAR32, 10 ug/ml […].

Chain of TDP-43 (Q13148 whole entry): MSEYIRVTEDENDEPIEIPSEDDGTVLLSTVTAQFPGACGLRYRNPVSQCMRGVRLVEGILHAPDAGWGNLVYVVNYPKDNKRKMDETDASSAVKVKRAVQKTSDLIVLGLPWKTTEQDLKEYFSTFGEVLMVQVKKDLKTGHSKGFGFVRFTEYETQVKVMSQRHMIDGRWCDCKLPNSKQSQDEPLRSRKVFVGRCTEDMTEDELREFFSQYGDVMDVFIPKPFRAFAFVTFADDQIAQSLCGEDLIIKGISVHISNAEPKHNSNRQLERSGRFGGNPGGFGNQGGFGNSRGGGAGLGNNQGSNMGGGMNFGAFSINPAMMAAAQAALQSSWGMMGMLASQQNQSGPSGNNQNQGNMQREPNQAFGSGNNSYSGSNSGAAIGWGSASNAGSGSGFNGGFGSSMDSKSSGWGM

Row | Compound | IC50 [µM]
1 | COc1ccc(-c2cc(NCCCN(C)CCCN(C)C)c3ccccc3n2)cc1 [Example 1, N^1-(3-((2-(4-Methoxyphenyl)quinolin-4-yl)amino)propyl)-N^1,N^3,N^3-trimethyl propane-1,3-diamine] | 0.28
2 | CNCCCN(C)CCCNc1cc(-c2ccc(OC)cc2)nc2ccccc12 [Example 2, 2-(4-Methoxyphenyl)-N-(3-{methyl[3-(methylamino)propyl]-amino}propyl) quinolin-4-amine] | 0.11
3 | COc1ccc(-c2cc(NCCCN(C)CCCN)c3ccccc3n2)cc1 [Example 3, N^1-(3-Aminopropyl)-N^3-(2-(4-methoxyphenyl)quinolin-4-yl)-N^1-methylpropane-1,3-diamine] | 0.08
4 | COc1ccc(-c2cc(NCCCNCCCN3CCCCC3)c3ccccc3n2)cc1 [Example 4, N^1-(2-(4-Methoxyphenyl)quinolin-4-yl)-N^3-(3-(piperidin-1-yl)propyl) propane-1,3-diamine trihydrochloride] | 0.22
5 | COc1ccc(-c2cc(NCCCN(C)CCCN3CCCCC3)c3ccccc3n2)cc1 [Example 5, N^1-(2-(4-methoxyphenyl)quinolin-4-yl)-N^3-methyl-N^3-(3-(piperidin-1-yl)propyl)propane-1,3-diamine trihydrochloride] | 0.24
6 | COc1ccc(-c2cc(NCCCNCCCNC(=O)OC(C)(C)C)c3ccccc3n2)cc1 [Example 6, tert-Butyl N-{3-[(3-{[2-(4-methoxyphenyl)quinolin-4yl]amino}propyl)amino]propyl}carbamate] | 0.76
7 | COc1ccc(-c2cc(NCCCN(C)CCCN)c3c(F)cccc3n2)cc1 [Example 7, N^1-(3-aminopropyl)-N^3-(5-fluoro-2-(4-methoxyphenyl)quinolin-4-yl)-N^1-methyl propane-1,3-diamine] | 0.22
8 | COc1ccc(-c2cc(NCCCNCCCN)c3ccccc3n2)cc1 [Example 8, N-{3-[(3-Aminopropyl)amino]propyl}-2-(4-methoxyphenyl)quinolin-4-amine trihydrochloride] | 0.08
9 | COc1ccc(-c2cc(NCCCN(C)CCCN)c3cc(OC)ccc3n2)cc1 [Example 9, N^1-(3-Aminopropyl)-N^3-(6-methoxy-2-(4-methoxyphenyl)quinolin-4-yl)-N^1-methylpropane-1,3-diamine] | 0.05
10 | COc1ccc(-c2cc(NCCCN(C)CCCN)c3ccccc3n2)c(C)c1 [Example 10, N^1-(3-Aminopropyl)-N^3-(2-(2-methyl-4-methoxyphenyl)quinolin-4-yl)-N^1-methylpropane-1,3-diamine] | 0.65
11 | CNCCCCN(C)CCCNc1cc(-c2ccc(OC)cc2)nc2ccccc12 [Example 12, N^1-(3-((2-(4-Methoxyphenyl)quinolin-4-yl)amino)propyl)-N^1,N^4-dimethyl butane-1,4-diamine trihydrochloride] | 0.08
12 | COc1ccc(-c2cc(NCCCN(C)CCCN(C)CCF)c3ccccc3n2)cc1 [Example 13, N^1-(2-fluoroethyl)-N^3-(3-((2-(4-methoxyphenyl)quinolin-4-yl)amino)propyl)-N^1,N^3-dimethylpropane-1,3-diamine] | 0.33
13 | COc1ccc(-c2cc(NCCCNCCCO)c3ccccc3n2)cc1 [Example 14, 3-((3-((2-(4-Methoxyphenyl)quinolin-4-yl)amino)propyl)amino)-propan-1-ol] | 0.9
14 | COCCCNCCCNc1cc(-c2ccc(OC)cc2)nc2ccccc12 [Example 15, N-(3-(3-methoxypropylamino)propyl)-2-(4-methoxyphenyl)quinolin-4-amine] | 0.8
15 | COc1ccc(-c2cc(NCCCN(CCCN)C(C)=O)c3ccccc3n2)cc1 [Example 16, N-(3-(2-(4-Methoxyphenyl)quinolin-4-ylamino)propyl)-N-(3-aminopropyl) acetamide] | 1.42
16 | COc1ccc(-c2cc(NCCCN(CCCN(C)C)CC3CC3)c3ccccc3n2)cc1 [Example 17, N^1-(Cyclopropylmethyl)-N^1-(3-((2-(4-methoxyphenyl)quinolin-4-yl)amino)propyl)-N^3,N^3-dimethylpropane-1,3-diamine] | 0.18
17 | COc1ccc(-c2cc(NCCCN(CCCN(C)C)CC3CN(C(=O)OC(C)(C)C)C3)c3ccccc3n2)cc1 [Example 18, tert-Butyl 3-(((3-(dimethylamino)propyl)(3-((2-(4-methoxyphenyl)quinolin-4-yl)amino)propyl)amino)methyl)azetidine-1-carboxylate] | 1.41
18 | COc1ccc(-c2cc(NCCCN(CCCN(C)C)CC3CCN(C(=O)OC(C)(C)C)CC3)c3ccccc3n2)cc1 [Example 19, tert-Butyl 4-(((3-(dimethylamino)propyl)(3-((2-(4-methoxyphenyl)quinolin-4-yl)amino)propyl)amino)methyl)piperidine-1-carboxylate] | 0.95
19 | COc1ccc(-c2cc(NCCCN(CCCN(C)C)CC3CNC3)c3ccccc3n2)cc1 [Example 20, N^1-(Azetidin-3-ylmethyl)-N^1-(3-((2-(4-methoxyphenyl)quinolin-4-yl)amino)propyl)-N^3,N^3-dimethylpropane-1,3-diamine] | 0.13
20 | COc1ccc(-c2cc(NCCCN(CCCN(C)C)CC3CCNCC3)c3ccccc3n2)cc1 [Example 21, N^1-(3-((2-(4-Methoxyphenyl)quinolin-4-yl)amino)propyl)-N^3,N^3-dimethyl-N^1-(piperidin-4-ylmethyl)propane-1,3-diamine] | 0.12
21 | COc1ccc(-c2cc(NCCCNCc3cncn3C)c3ccccc3n2)cc1 [Example 22, N^1-(2-(4-Methoxyphenyl)quinolin-4-yl)-N^3-((1-methyl-1H-imidazol-5-yl)methyl)propane-1,3-diamine] | 0.68
22 | COc1ccc(-c2cc(NCCCN3CC4CNCC4C3)c3ccccc3n2)cc1 (centres unmarked) [Example 23, N-(3-(Hexahydropyrrolo[3,4-c]pyrrol-2(1H)-yl)propyl)-2-(4-methoxyphenyl) quinolin-4-amine] | 0.24
23 | COc1ccc(-c2cc(NCCCN(C)Cc3ccc(N)nc3)c3ccccc3n2)cc1 [Example 24, N^1-((6-Aminopyridin-3-yl)methyl)-N^3-(2-(4-methoxyphenyl)-quinolin-4-yl)-N^1-methylpropane-1,3-diamine] | 1.11
24 | COc1ccc(-c2cc(NCCCN(C)CC(O)CN(C)C)c3ccccc3n2)cc1 (centres unmarked) [Example 25, 1-(Dimethylamino)-3-((3-((2-(4-methoxyphenyl)quinolin-4-yl)-amino)propyl)(methyl)amino)propan-2-ol] | 0.22
25 | COc1ccc(-c2cc(NCCCN(C)CCCN3CCC(O)CC3)c3ccccc3n2)cc1 [Example 26, 1-(3-((3-((2-(4-Methoxyphenyl)quinolin-4-yl)amino)propyl)-methylamino)propyl) piperidin-4-ol] | 0.15
26 | COc1ccc(-c2cc(NCCCN3CC4CN(C(=O)OC(C)(C)C)CC4C3)c3ccccc3n2)cc1 (centres unmarked) [Example 27, tert-butyl 5-(3-((2-(4-methoxyphenyl)quinolin-4-yl)amino)propyl)hexahydro-pyrrolo[3,4-c]pyrrole-2(1H)-carboxylate] | 2.08
27 | COc1ccc(-c2cc(NCCCN(C)Cc3ccc(N(C)C)nc3)c3ccccc3n2)cc1 [Example 28, N^1-((6-(dimethylamino)pyridin-3-yl)methyl)-N^3-(2-(4-methoxyphenyl)quinolin-4-yl)-N^1-methylpropane-1,3-diamine] | 1.21

same assay, conditions: side-by-side, three independent assays, bt-TAR32; average

Row | Compound | increase in potency versus (XXVIII), average [×]
28 | COc1ccc(-c2cc(NCCCN(C)CCCN)c3ccccc3n2)cc1 [Example 3, N^1-(3-Aminopropyl)-N^3-(2-(4-methoxyphenyl)quinolin-4-yl)-N^1-methylpropane-1,3-diamine] | 14

same assay, conditions: side-by-side, three independent assays, bt-TAR32; range

Row | Compound | increase in potency versus (XXVIII)
29 | COc1ccc(-c2cc(NCCCN(C)CCCN)c3ccccc3n2)cc1 [Example 3, N^1-(3-Aminopropyl)-N^3-(2-(4-methoxyphenyl)quinolin-4-yl)-N^1-methylpropane-1,3-diamine] | 11-18 ×
